From US20260070945A1, “MACROCYCLIC IMMUNOMODULATORS” (Bristol-Myers Squibb Company, priority 2022, published 2026)
Where a SMILES comes first, the peptide text is derived from it. Bridges are numbered along the chain shown (N, C = ends). [ ]: non-standard residue; d: D form. The star is where a group is joined. ξ: configuration not given here. Phe(4-COOH) = N[C@@H](Cc1ccc(C(=O)O)cc1)C(=O)O; Bip = N[C@@H](Cc1ccc(-c2ccccc2)cc1)C(=O)O; hArg = N=C(N)NCCCC[C@H](N)C(=O)O; 4Pal = N[C@@H](Cc1ccncc1)C(=O)O; Cha = N[C@@H](CC1CCCCC1)C(=O)O; Ile(3ξ) = CCC(C)[C@H](N)C(=O)O; Thr(3ξ) = CC(O)[C@H](N)C(=O)O; Carboxymethyl = O=C(O)C*; NMeA = CN[C@@H](C)C(=O)O; Orn = NCCC[C@H](N)C(=O)O; Aun = NCCCCCCCCCCC(=O)O; Dab = NCC[C@H](N)C(=O)O; Dap = NC[C@H](N)C(=O)O; AEEA = NCCOCCOCC(=O)O; Sar = CNCC(=O)O

molecular target: T1, PD-1/PD-L1 interaction (PE-labeled human PD-L1-Ig binding to Jurkat cell line over-expressing human PD-1) (Homo sapiens, UniProt Q15116); assay: Jurkat-PD-1 Cell Binding High-Content Screening Assay (CBA); settings: Jurkat-hPD-1 cells, PE-labeled PD-L1-Ig 20 nM final; read-out: Jurkat HPD1 PDL1 IC50
T1 construct: expressed in transfected cells; host or cells: Jurkat
How it was run: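 In this imaging assay, cells in 10% FCS medium see compound for 2 h at 37 °C and then labeled ligand at 20 nM final for 1 h. Paraformaldehyde fixation, Hoechst 33342 staining and dPBS washes precede image capture.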

T1 sequence (Q15116 25-288): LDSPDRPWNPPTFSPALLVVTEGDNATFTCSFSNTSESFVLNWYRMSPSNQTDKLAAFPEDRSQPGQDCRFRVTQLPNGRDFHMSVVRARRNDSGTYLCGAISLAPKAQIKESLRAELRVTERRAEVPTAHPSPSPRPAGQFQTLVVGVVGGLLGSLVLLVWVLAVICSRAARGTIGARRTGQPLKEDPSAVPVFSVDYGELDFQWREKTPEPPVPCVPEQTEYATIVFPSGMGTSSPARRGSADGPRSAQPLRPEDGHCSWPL

SMILES | IC50
CC(C)C[C@@H]1NC(=O)[C@H](Cc2c[nH]c3ccccc23)NC(=O)[C@H](CC(=O)O)NC(=O)[C@H](Cc2ccc(C(=O)O)cc2)NC(=O)[C@H](Cc2ccc(OCC(=O)O)cc2)NC(=O)CSC[C@@H](C(=O)N[C@@H](CCCN)C(=O)NCCOCCOCC(=O)NCCCCCCCCCCC(=O)O)NC(=O)[C@H](CO)NC(=O)[C@H](C(C)C)NC(=O)[C@H](CC2CCCCC2)NC(=O)[C@H](CCN)NC(=O)[C@@H](CC(C)C)NC(=O)[C@H](C)N(C)C(=O)[C@H](C(C)C)NC(=O)[C@H](Cc2ccc(-c3ccccc3)cc2)NC1=O [Example 2095] ({CH2CO}-Y(Carboxymethyl)[Phe(4-COOH)]DWL[Bip]V[NMeA][dL][Dab][Cha]VSC[Orn][AEEA][Aun]-OH; thioether N-14) | 9.5 nM
CC(C)C[C@@H]1NC(=O)[C@H](Cc2c[nH]c3ccccc23)NC(=O)[C@H](CC(=O)O)NC(=O)[C@H](Cc2ccc(C(=O)O)cc2)NC(=O)[C@H](Cc2ccc(OCC(=O)O)cc2)NC(=O)CSC[C@@H](C(=O)N[C@@H](CCCCN)C(=O)NCCOCCOCC(=O)NCCCCCCCCCCC(=O)O)NC(=O)[C@H](CO)NC(=O)[C@H](C(C)C)NC(=O)[C@H](CC2CCCCC2)NC(=O)[C@H](CCN)NC(=O)[C@@H](CC(C)C)NC(=O)[C@H](C)N(C)C(=O)[C@H](C(C)C)NC(=O)[C@H](Cc2ccc(-c3ccccc3)cc2)NC1=O [Example 2096] ({CH2CO}-Y(Carboxymethyl)[Phe(4-COOH)]DWL[Bip]V[NMeA][dL][Dab][Cha]VSCK[AEEA][Aun]-OH; thioether N-14) | 11.8 nM
CC(C)C[C@@H]1NC(=O)[C@H](Cc2c[nH]c3ccccc23)NC(=O)[C@H](CC(=O)O)NC(=O)[C@H](Cc2ccccc2)NC(=O)[C@H](Cc2ccc(O)cc2)NC(=O)CSC[C@@H](C(=O)N[C@@H](CCCCN)C(=O)NCCOCCOCC(=O)NCCCCCCCCCCC(=O)O)NC(=O)[C@H](CO)NC(=O)[C@H](C(C)C)NC(=O)[C@H](CC2CCCCC2)NC(=O)[C@H](CCN)NC(=O)[C@@H](CC(C)C)NC(=O)[C@H](C)N(C)C(=O)[C@H](C(C)C)NC(=O)[C@H](Cc2ccc(-c3ccccc3)cc2)NC1=O [Example 2097] ({CH2CO}-YFDWL[Bip]V[NMeA][dL][Dab][Cha]VSCK[AEEA][Aun]-OH; thioether N-14) | 94.8 nM
CC(C)C[C@H]1NC(=O)[C@H](C)N(C)C(=O)[C@H](C(C)C)NC(=O)[C@H](Cc2ccc(-c3ccccc3)cc2)NC(=O)[C@H](C(C)C)NC(=O)[C@H](Cc2c[nH]c3ccccc23)NC(=O)[C@H](CC(=O)O)NC(=O)[C@H](Cc2ccc(OCC(=O)O)cc2)NC(=O)[C@H](CN)NC(=O)CSC[C@@H](C(=O)NCCOCCOCC(=O)N[C@@H](CN)C(=O)NCCCCCCCCCCC(=O)O)NC(=O)[C@H](C(C)O)NC(=O)[C@H](C(C)C)NC(=O)[C@H](CC2CCCCC2)NC(=O)[C@H](CCN)NC1=O (stereo partly drawn) [Example 2099] ({CH2CO}-[Dap]Y(Carboxymethyl)DWV[Bip]V[NMeA][dL][Dab][Cha]V[Thr(3ξ)]C[AEEA][Dap][Aun]-OH; thioether N-14) | 17 nM
CC(C)C[C@H]1NC(=O)[C@H](C)N(C)C(=O)[C@H](C(C)C)NC(=O)[C@H](Cc2ccc(-c3ccccc3)cc2)NC(=O)[C@H](C(C)C)NC(=O)[C@H](Cc2c[nH]c3ccccc23)NC(=O)[C@H](CC(=O)O)NC(=O)[C@H](Cc2ccc(OCC(=O)O)cc2)NC(=O)[C@H](Cc2ccncc2)NC(=O)CSC[C@@H](C(=O)N[C@@H](CCCCN)C(=O)NCCOCCOCC(=O)NCCCCCCCCCCC(=O)O)NC(=O)[C@H](CO)NC(=O)[C@H](C(C)C)NC(=O)[C@H](CC2CCCCC2)NC(=O)[C@H](CCN)NC1=O [Example 2100] ({CH2CO}-[4Pal]Y(Carboxymethyl)DWV[Bip]V[NMeA][dL][Dab][Cha]VSCK[AEEA][Aun]-OH; thioether N-14) | 21.7 nM
CC(C)[C@@H]1NC(=O)[C@H](CC2CCCCC2)NC(=O)[C@H](CCN)NC(=O)CN(C)C(=O)[C@H](C)N(C)C(=O)[C@H](C(C)C)NC(=O)[C@H](Cc2ccc(-c3ccccc3)cc2)NC(=O)[C@H](C(C)C)NC(=O)[C@H](Cc2c[nH]c3ccccc23)NC(=O)[C@H](CC(=O)O)NC(=O)[C@H](Cc2ccncc2)NC(=O)[C@H](Cc2ccc(OCC(=O)O)cc2)NC(=O)CSC[C@@H](C(=O)N[C@@H](CCCCN)C(=O)NCCOCCOCC(=O)NCCCCCCCCCCC(=O)O)NC(=O)[C@H](CO)NC1=O [Example 2102] ({CH2CO}-Y(Carboxymethyl)[4Pal]DWV[Bip]V[NMeA][Sar][Dab][Cha]VSCK[AEEA][Aun]-OH; thioether N-14) | 337 nM
CCC(C)[C@@H]1NC(=O)[C@H](Cc2ccc(-c3ccccc3)cc2)NC(=O)[C@H](C(C)C)NC(=O)[C@H](Cc2c[nH]c3ccccc23)NC(=O)[C@H](CC(=O)O)NC(=O)[C@H](Cc2ccc(OCC(=O)O)cc2)NC(=O)[C@H](Cc2ccncc2)NC(=O)CSC[C@@H](C(=O)N[C@@H](CCCN)C(=O)NCCOCCOCC(=O)NCCCCCCCCCCC(=O)O)NC(=O)[C@H](C(C)O)NC(=O)[C@H](C(C)C)NC(=O)[C@H](CC2CCCCC2)NC(=O)[C@H](CCN)NC(=O)[C@@H](CC(C)C)NC(=O)[C@H](C)N(C)C1=O (stereo partly drawn) [Example 2104] ({CH2CO}-[4Pal]Y(Carboxymethyl)DWV[Bip][Ile(3ξ)][NMeA][dL][Dab][Cha]V[Thr(3ξ)]C[Orn][AEEA][Aun]-OH; thioether N-14) | 14.1 nM
CCC(C)[C@@H]1NC(=O)[C@H](Cc2ccc(-c3ccccc3)cc2)NC(=O)[C@H](C(C)C)NC(=O)[C@H](Cc2c[nH]c3ccccc23)NC(=O)[C@H](CC(=O)O)NC(=O)[C@H](Cc2ccc(OCC(=O)O)cc2)NC(=O)[C@H](Cc2ccncc2)NC(=O)CSC[C@@H](C(=O)N[C@@H](CCCCN)C(=O)NCCOCCOCC(=O)NCCCCCCCCCCC(=O)O)NC(=O)[C@H](C(C)O)NC(=O)[C@H](C(C)C)NC(=O)[C@H](CC2CCCCC2)NC(=O)[C@H](CCN)NC(=O)[C@@H](CC(C)C)NC(=O)[C@H](C)N(C)C1=O (stereo partly drawn) [Example 2105] ({CH2CO}-[4Pal]Y(Carboxymethyl)DWV[Bip][Ile(3ξ)][NMeA][dL][Dab][Cha]V[Thr(3ξ)]CK[AEEA][Aun]-OH; thioether N-14) | 15 nM

The remaining compounds from weak to strong by IC50, led by results:

IC50 | SMILES
29.6 nM | CC(C)C[C@H]1NC(=O)[C@H](C)N(C)C(=O)[C@H](C(C)C)NC(=O)[C@H](Cc2ccc(-c3ccccc3)cc2)NC(=O)[C@H](C(C)C)NC(=O)[C@H](Cc2c[nH]c3ccccc23)NC(=O)[C@H](CC(=O)O)NC(=O)[C@H](CCCCNC(=N)N)NC(=O)[C@H](Cc2ccc(OCC(=O)O)cc2)NC(=O)CSC[C@@H](C(=O)N[C@@H](CCCCN)C(=O)NCCOCCOCC(=O)NCCCCCCCCCCC(=O)O)NC(=O)[C@H](CO)NC(=O)[C@H](C(C)C)NC(=O)[C@H](CC2CCCCC2)NC(=O)[C@H](CCN)NC1=O [Example 2103] ({CH2CO}-Y(Carboxymethyl)[hArg]DWV[Bip]V[NMeA][dL][Dab][Cha]VSCK[AEEA][Aun]-OH; thioether N-14)
24 nM | CC(C)C[C@@H]1NC(=O)[C@H](Cc2c[nH]c3ccccc23)NC(=O)[C@H](CC(=O)O)NC(=O)[C@H](Cc2ccccc2)NC(=O)[C@H](Cc2ccc(OCC(=O)O)cc2)NC(=O)CSC[C@@H](C(=O)N[C@@H](CCCCN)C(=O)NCCOCCOCC(=O)NCCCCCCCCCCC(=O)O)NC(=O)[C@H](CO)NC(=O)[C@H](C(C)C)NC(=O)[C@H](CC2CCCCC2)NC(=O)[C@H](CCN)NC(=O)[C@@H](CC(C)C)NC(=O)[C@H](C)N(C)C(=O)[C@H](C(C)C)NC(=O)[C@H](Cc2ccc(-c3ccccc3)cc2)NC1=O [Example 2098] ({CH2CO}-Y(Carboxymethyl)FDWL[Bip]V[NMeA][dL][Dab][Cha]VSCK[AEEA][Aun]-OH; thioether N-14)
14.6 nM | CC(C)C[C@H]1NC(=O)[C@H](C)N(C)C(=O)[C@H](C(C)C)NC(=O)[C@H](Cc2ccc(-c3ccccc3)cc2)NC(=O)[C@H](C(C)C)NC(=O)[C@H](Cc2c[nH]c3ccccc23)NC(=O)[C@H](CC(=O)O)NC(=O)[C@H](Cc2ccc(C(=O)O)cc2)NC(=O)[C@H](Cc2ccc(OCC(=O)O)cc2)NC(=O)CSC[C@@H](C(=O)N[C@@H](CCCCN)C(=O)NCCOCCOCC(=O)NCCCCCCCCCCC(=O)O)NC(=O)[C@H](CO)NC(=O)[C@H](C(C)C)NC(=O)[C@H](CC2CCCCC2)NC(=O)[C@H](CCN)NC1=O [Example 2101] ({CH2CO}-Y(Carboxymethyl)[Phe(4-COOH)]DWV[Bip]V[NMeA][dL][Dab][Cha]VSCK[AEEA][Aun]-OH; thioether N-14)
9.6 nM | CC(C)C[C@@H]1NC(=O)[C@H](Cc2c[nH]c3ccccc23)NC(=O)[C@H](CC(=O)O)NC(=O)[C@H](Cc2ccc(C(=O)O)cc2)NC(=O)[C@H](Cc2ccc(OCC(=O)O)cc2)NC(=O)CSC[C@@H](C(=O)N[C@@H](CCN)C(=O)NCCOCCOCC(=O)NCCCCCCCCCCC(=O)O)NC(=O)[C@H](CO)NC(=O)[C@H](C(C)C)NC(=O)[C@H](CC2CCCCC2)NC(=O)[C@H](CCN)NC(=O)[C@@H](CC(C)C)NC(=O)[C@H](C)N(C)C(=O)[C@H](C(C)C)NC(=O)[C@H](Cc2ccc(-c3ccccc3)cc2)NC1=O [Example 2094] ({CH2CO}-Y(Carboxymethyl)[Phe(4-COOH)]DWL[Bip]V[NMeA][dL][Dab][Cha]VSC[Dab][AEEA][Aun]-OH; thioether N-14)
8 nM | CCC(C)[C@@H]1NC(=O)[C@H](Cc2ccc(-c3ccccc3)cc2)NC(=O)[C@H](C(C)C)NC(=O)[C@H](Cc2c[nH]c3ccccc23)NC(=O)[C@H](CC(=O)O)NC(=O)[C@H](Cc2ccncc2)NC(=O)[C@H](Cc2ccc(OCC(=O)O)cc2)NC(=O)CSC[C@@H](C(=O)N[C@@H](CCCN)C(=O)NCCOCCOCC(=O)NCCCCCCCCCCC(=O)O)NC(=O)[C@H](C(C)O)NC(=O)[C@H](C(C)C)NC(=O)[C@H](CC2CCCCC2)NC(=O)[C@H](CCN)NC(=O)[C@@H](CC(C)C)NC(=O)[C@H](C)N(C)C1=O (stereo partly drawn) [Example 2106] ({CH2CO}-Y(Carboxymethyl)[4Pal]DWV[Bip][Ile(3ξ)][NMeA][dL][Dab][Cha]V[Thr(3ξ)]C[Orn][AEEA][Aun]-OH; thioether N-14)
